{
  "source": "paper PMC5987058",
  "about": "“Therapeutic Potential of a Scorpion Venom-Derived Antimicrobial Peptide and Its Homologs Against Antibiotic-Resistant Gram-Positive Bacteria” (Frontiers in Microbiology, 2018)",
  "key": {"[1]": {"system": "Staphylococcus aureus AB94004", "experiment": "MIC, broth microdilution", "type": "cell-based", "details": "legend of Figure 6", "method": "The antimicrobial activity was determined via a broth microdilution assay according to the procedure recommended by the Clinical and Laboratory Standards Institute with some modifications ([Hou et al., 2011]; [Li et al., 2016]). Bacteria were cultured in Luria-Bertani (LB) broth to OD600 = 0.6 at 37°C, then diluted to 10^5–10^6 CFU/mL in LB medium. Peptides were serially double diluted to a gradient concentration range from 48.3 to 1.5 μM in physiological saline. Eighty microliters of the bacterial suspension and 20 μL of diluted peptide at varying concentrations were added to 96-well plates, and then incubated for 16–18 h at 37°C with continuous shaking at 250 rpm. The antimicrobial activity of ampicillin and kanamycin were also tested as positive controls. Experiments were performed in triplicate. The minimum inhibitory concentration (MIC) was determined as the lowest peptide concentration at which no bacterial growth was observed."}, "[2]": {"system": "Escherichia coli ATCC25922", "details": "comparison values; ref Zeng et al., 2004, 2012; Cao et al., 2012a; cited from earlier work", "description": "(§1) Table 1 In Vitro antimicrobial activities of marcin-18 and its homologs compared with other peptides and antibiotics. | column: MIC (μM) / BmKn2; MIC (μM) / Amp; MIC (μM) / Kana"}, "[3]": {"system": "Staphylococcus aureus AB94004", "details": "comparison values; ref Zeng et al., 2004, 2012; Cao et al., 2012a; cited from earlier work", "description": "as §1"}, "[4]": {"system": "S. aureus AB94004", "experiment": "SYTOX green fluorescence measurement (membrane integrity)", "type": "cell-based, Staphylococcus aureus", "details": "positive control; 5 μM SYTOX green; n = 3", "method": "S. aureus AB94004 were cultured to exponential phase (ca. 10^7 CFU/mL), centrifuged and suspended in physiological saline. Then the fluorescence dye SYTOX green (Invitrogen) was added at a final concentration of 5 μM. After incubation for 10 min, 50 μL bacterial culture and equal volume of peptides serially diluted in physiological saline at final concentrations of 1 × MIC, 2 × MIC, and 4 × MIC were added in a Greiner 96-well flat-bottom black plate. Physiological saline and MSI 78 were used as negative and positive controls. Fluorescence was measured over 30 min at the excitation and emission wavelengths of 488 and 525 nm, respectively."}, "[5]": {"system": "MRSA P1381", "details": "methicillin-resistant clinical isolate; comparison values; ref Zeng et al., 2004, 2012; Cao et al., 2012a; cited from earlier work", "description": "(§2) Table 1 In Vitro antimicrobial activities of marcin-18 and its homologs compared with other peptides and antibiotics. | column: MIC (μM) / BmKn2; MIC (μM) / Van"}, "[6]": {"system": "PRSA P1383", "details": "penicillin-resistant clinical isolate; comparison values; ref Zeng et al., 2004, 2012; Cao et al., 2012a; cited from earlier work", "description": "as §2"}, "[7]": {"system": "MRSA P1369", "details": "methicillin-resistant clinical isolate; comparison values; ref Zeng et al., 2004, 2012; Cao et al., 2012a; cited from earlier work", "description": "as §2"}, "[8]": {"system": "MRSA P1386", "details": "methicillin-resistant clinical isolate; comparison values; ref Zeng et al., 2004, 2012; Cao et al., 2012a; cited from earlier work", "description": "as §2"}, "[9]": {"system": "PRSA P1389", "details": "penicillin-resistant clinical isolate; comparison values; ref Zeng et al., 2004, 2012; Cao et al., 2012a; cited from earlier work", "description": "as §2"}, "[10]": {"system": "MRSA P1374", "details": "methicillin-resistant clinical isolate; comparison values; ref Zeng et al., 2004, 2012; Cao et al., 2012a; cited from earlier work", "description": "as §2"}, "[11]": {"system": "MRSA P1381", "experiment": "Mouse peritonitis model", "type": "in vivo, BALB/c mice", "details": "n = 6", "method": "Six to eight-week-old male BALB/c mice (18–21 g) were purchased from the Animal Center for Disease Control and Prevention (Hubei, China) and maintained under specific pathogen-free conditions at 25 ± 2°C and 50 ± 5% humidity, on a 12 h/12 h light/dark cycle.\nAll methods were performed in accordance with the relevant guidelines ([Dai et al., 2008]; [Peng et al., 2017]). The mice were intraperitoneally (i.p.) injected with 0.5 mL/mouse (5.85 × 10^7 CFU) of the exponential phase MRSA P1381 inoculum in physiological saline containing 5% (wt/v) mucin. At 1 h after the bacterial infection, the mice were i.p. injected with 0.4 mL/mouse of physiological saline (I) (to serve as a negative control), marcin-18 peptide (10 mg/kg) (II), marcin-18 peptide (25 mg/kg) (III), meucin-18 peptide (25 mg/kg) (IV), megicin-18 peptide (25 mg/kg) (V), and vancomycin (25 mg/kg) (VI). The vancomycin dose was set based on previous studies ([Cavanagh et al., 2013]; [Wang et al., 2018]). Each group included 6 mice. After another 24 h post administration, subject peritonea were lavaged with 1 mL of physiological saline and lavage fluids were then collected. Ascites were diluted and plated on LB agar so that the number of bacterial colonies could be counted. The ability of the three peptides to rescue mice from lethal bacteremia was observed 2–4 times daily and survival was tracked for 7 days."}},
  "note": "Ends that are not written are not given here.",
  "data": [
    {"molecule": "CC[C@H](C)[C@H](NC(=O)CN)C(=O)NCC(=O)N[C@@H](C)C(=O)N[C@H](C(=O)N[C@@H](CC(C)C)C(=O)N[C@@H](CCCCN)C(=O)N[C@H](C(=O)N[C@@H](CC(C)C)C(=O)N[C@H](C(=O)N[C@H](C(=O)NCC(=O)N[C@@H](CC(C)C)C(=O)N1CCC[C@H]1C(=O)N[C@@H](C)C(=O)N[C@@H](CC(C)C)C(=O)N[C@H](C(=O)N[C@@H](CO)C(=O)N[C@@H](Cc1c[nH]c2ccccc12)C(=O)N[C@H](C(=O)N[C@@H](CCCCN)C(=O)N[C@@H](CCCNC(=N)N)C(=O)N[C@@H](CCCCN)C(=O)N[C@@H](CCCNC(=N)N)C(=O)N[C@@H](CCC(N)=O)C(=O)N[C@@H](CCC(N)=O)C(N)=O)[C@@H](C)CC)[C@@H](C)CC)[C@@H](C)O)[C@@H](C)O)C(C)C)C(C)C", "note": "[melittin]", "values": [
      {"measurement": "MIC of control substances", "setting": "[1]", "value": 2.2, "unit": "µM"}
    ]},
    {"molecule": "CC1(C)S[C@@H]2[C@H](NC(=O)[C@H](N)c3ccccc3)C(=O)N2[C@H]1C(=O)O", "note": "[Amp, ampicillin]", "values": [
      {"measurement": "MIC", "setting": "[2]", "value": 33.7, "unit": "µM"},
      {"measurement": "MIC", "setting": "[3]", "value": 67.3, "unit": "µM"}
    ]},
    {"molecule": "GIGKFLKKAKKFGKAFVKILKK-NH2 (C-terminus assumed) [MSI 78]", "values": [
      {"measurement": "MIC of control substances", "setting": "[1]", "value": 2.5, "unit": "µM"},
      {"measurement": "SYTOX green fluorescence", "setting": "[4]", "value": "stable increase"}
    ]},
    {"molecule": "CN[C@H](CC(C)C)C(=O)N[C@H]1C(=O)N[C@@H](CC(N)=O)C(=O)N[C@H]2C(=O)N[C@H]3C(=O)N[C@H](C(=O)N[C@H](C(=O)O)c4cc(O)cc(O)c4-c4cc3ccc4O)[C@H](O)c3ccc(c(Cl)c3)Oc3cc2cc(c3O[C@@H]2O[C@H](CO)[C@@H](O)[C@H](O)[C@H]2O[C@H]2C[C@](C)(N)[C@H](O)[C@H](C)O2)Oc2ccc(cc2Cl)[C@H]1O", "note": "[Van, vancomycin]", "values": [
      {"measurement": "MIC", "setting": "[5]", "value": 2.1, "unit": "µM"},
      {"measurement": "MIC", "setting": "[6]", "value": 4.2, "unit": "µM"},
      {"measurement": "MIC", "setting": "[7]", "value": 4.2, "unit": "µM"},
      {"measurement": "MIC", "setting": "[8]", "value": 2.1, "unit": "µM"},
      {"measurement": "MIC", "setting": "[9]", "value": 4.2, "unit": "µM"},
      {"measurement": "MIC", "setting": "[10]", "value": 4.2, "unit": "µM"},
      {"measurement": "survival of infected mice", "setting": "[11]; 25 mg/kg i.p. single dose 1 h after i.p. 5.85 × 10^7 CFU MRSA P1381, 7 days", "value": 100, "unit": "%"},
      {"measurement": "bacteria in ascites of antibiotic-treated group", "setting": "[11]; 25 mg/kg i.p., peritoneal lavage 24 h after administration", "value": "few detectable bacteria"}
    ]}
  ]
}
